Laboratory results published in patent publication US20200281845A1, “COMPOSITIONS COMPRISING LESPEDEZA PLANT EXTRACT” (Clariant International Ltd., priority 2017, published 2020).

System: Per2pro-LUC
Assay: Improvement of circadian clock activity reduced by TCDD, Per2pro-LUC in HaCaT cells
Format: cell-based, human
Conditions: TCDD 1.5 nM for 4 hours, compared to cells treated with solvent toluene alone
Procedure: The improvement effects of the extracts of Lespedeza bicolor Turcz, Lespedeza cuneata G. Don, Lespedeza maximowiczii C. K. Schneid and Lespedeza capitata were measured in skin circadian clock activity reduced by TCDD (2,3,7,8-Tetrachlorodibenzo-p-dioxin) which is an environmental hormone dioxin. HaCaT cells containing Per2pro-LUC were inoculated in a 96-well plate containing Hygromycine B at 200 ug/ml and 10% FBS in DMEM medium (1.4×10^4 cells/well), and cultured in a 5% CO2 incubator at 37° C. for 48 hours. After 48 hours, 50 ug/ml of the extracts of Lespedeza bicolor Turcz, Lespedeza cuneata G. Don and Lespedeza maximowiczii C. K. Schneid and Lespedeza capitata were each treated for 24 hours while being treated with TCDD (2,3,7,8-tetrachlorodibenzo-p-dioxin) 1.5 nM for 4 hours simultaneously, and then transferred to the medium for measuring Luciferase (DMEM containing HEPES 10 mM, Luciferin 1 mM, Hygromycine B 200 ug/ml, 10% FBS). […] K. Schneid and Lespedeza capitata in alleviating reduced biorhythm by environmental hormones. As shown here, cells treated with TCDD had 30% reduced absolute value for Per2pro-LUC rhythm, compared to cells that were treated with the solvent toluene alone. In contrast to this, cells treated with the extracts of Lespedeza bicolor Turcz, Lespedeza cuneata G. Don, Lespedeza maximowiczii C.

Clc1cc2c(cc1Cl)Oc1cc(Cl)c(Cl)cc1O2 [TCDD, 2,3,7,8-Tetrachlorodibenzo-p-dioxin]
reduced absolute value for Per2pro-LUC rhythm: 30%
